According to patent publication US12233086B2, “Biomarkers for neurogenerative disease” (Neuvivo, Inc., priority 2022, dated 2025):
Several values for one entry are separate records, joined by “and”; a condition that tells them apart may be missing. Equal entries are not always repeated. Where two headings read alike, the source gives them in different places.

What was measured:
TGFB1 = details: age≤65, baseline CRP>1.13 mg/L; p=0.02 for month 6
Method: (§1) Participants received a total of 20 infusions administered intravenously monthly over 6 cycles during a 6-month double-blind treatment period. […] The start of each cycle was separated by four weeks. Cycle 1 consisted of 30 min infusions over 5 consecutive days. Cycles 2, 3, 4, 5, and 6 each consisted of 3 consecutive daily infusions. ALSFRS-R and vital capacity measurements were performed monthly. The average rate of ALS disease progression (Average DP Rate) at baseline was defined as ALSFRS-R score change per month [(48−ALSFRS-R score at baseline)/months since ALS symptom onset from baseline]]. […] Plasma specimens for biomarker analysis were obtained at the beginning and end of the study (month 6, one month after last dose). All patients had to have completed the study to provide end of study plasma. The units expressed in this Example are hs-CRP units, abbreviated as CRP.

EGF = tested on: EGF
Description: (§2) Description of ALS Phase 2A trial and participants: Participants received a total of infusions administered intravenously over 6 cycles during a 25-week double-blind treatment period. There were 4 weeks between the start of each cycle. Cycle 1 consisted of 5 consecutive daily infusions. Cycles 2, 3, 4, 5, and 6 each consisted of 3 consecutive daily infusions. Plasma specimens for biomarker analysis were obtained at the beginning and end of study.
(§3) Source of patient specimens: The plasma specimens had been stored at −80° C. since the trial ended and were all evaluated for biomarker levels.

LBP = tested on: LBP
Description: as §2, §3

sCD163 = tested on: sCD163
Description: as §2, §3

Neopterin = tested on: Neopterin
Description: as §2, §3

IL-10 = tested on: IL-10
Description: as §2, §3

LPS = tested on: LPS
Description: as §2, §3

HGF = tested on: HGF
Description: as §2, §3

IL-18 = tested on: IL-18
Description: as §2, §3

ALS patients [1] = details: for decline in VC over 6 months vs placebo (words): CRP>1.13 mg/L
Method: as §1
The clinical outcome data evaluated for the current study were the forced vital capacity measurements performed on all patients at baseline and every month until the end of study. Using the patient's age and height with the actual respiratory volume measured, the % predicted vital capacity (VC) was calculated as described.

TNF-a = details: age 40-65, CRP>1.13 mg/L
Method: as §3

IL-8 = details: age 40-65, CRP>1.13 mg/L
Method: as §3

IL-6 = details: age 40-65, CRP>1.13 mg/L
Method: as §3

CD16 = details: phase 1 dose ascending study in ALS patients; cited from earlier work
LPS:EGF = details: ratio increased over time in placebo
NfL = details: 6 months; p=0.09
ALS patients [2] = details: plasma CRP greater than 1.13 mg/L; rates of ALSFRS-R and vital capacity decline; cited from earlier work
ALS patients [3] = tested on: ALS patients
[4] = CRP>1.13 mg/L, aged 40-65, Wilcoxon p 0.04
[5] = NP001 2 mg/kg, N 14, age 40-65, CRP>1.13 mg/L, six months
[6] = CRP>1.13 mg/L, aged 40-65, Wilcoxon p 0.02
[7] = CRP>1.13 mg/L, listed as sodium chlorite
[8] = NP001 2 mg/kg, N 59, age≤65, CRP>1.13 mg/L
[9] = NP001 2 mg/kg, N 64, age≤65, CRP>1.13 mg/L
[10] = NP001 2 mg/kg, N 68, age≤65, CRP>1.13 mg/L
[11] = NP001 2 mg/kg, N 69, age≤65, CRP>1.13 mg/L
[12] = NP001 2 mg/kg, N 72, age≤65, CRP>1.13 mg/L
[13] = NP001 2 mg/kg, N 74, age≤65, CRP>1.13 mg/L

sodium chlorite [NP001]
plasma TGFB1 levels over the 6-month trial vs placebo (TGFB1): significantly increased | plasma EGF change relative to placebo over 6 months (EGF; CRP>1.13 mg/L): increased | EGF: % difference between NP001-treated and placebo at 6 months (% median change from baseline) (EGF; [4]): 32.4% | % EGF change from baseline, Mean (EGF; [5]): 64.3% | % EGF change from baseline, Median (EGF; [5]): 6.5% | plasma LBP change relative to placebo over 6 months (LBP; CRP>1.13 mg/L): decreased | LBP: % difference between NP001-treated and placebo at 6 months (% median change from baseline) (LBP; CRP>1.13 mg/L, aged 40-65, Wilcoxon p 0.006): −25.9% | % LBP change from baseline, Mean (LBP; [5]): −1.6% | % LBP change from baseline, Median (LBP; [5]): −5.4% | plasma sCD163 change relative to placebo over 6 months (sCD163; CRP>1.13 mg/L): decreased | sCD163: % difference between NP001-treated and placebo at 6 months (% median change from baseline) (sCD163; [6]): −19.6% | % CD163 change from baseline, Mean (sCD163; [5]): −3.5% | % CD163 change from baseline, Median (sCD163; [5]): −5.9% | plasma neopterin change relative to placebo over 6 months (Neopterin; CRP>1.13 mg/L): increased | Neopterin: % difference between NP001-treated and placebo at 6 months (% median change from baseline) (Neopterin; [4]): 18.1% | % Neopterin change from baseline, Mean (Neopterin; [5]): 13.9% | % Neopterin change from baseline, Median (Neopterin; [5]): 10.8% | plasma IL-10 change relative to placebo over 6 months (IL-10; CRP>1.13 mg/L): increased | IL-10: % difference between NP001-treated and placebo at 6 months (% median change from baseline) (IL-10; [6]): 18.6% | % IL-10 change from baseline, Mean (IL-10; [5]): 38.8% | % IL-10 change from baseline, Median (IL-10; [5]): 0.0% | LPS: % difference between NP001-treated and placebo at 6 months (% median change from baseline) (LPS; [4]): −51.8% | plasma LPS change relative to placebo over 6 months (words) (LPS; [7]): decreased | % LPS change from baseline, Mean (LPS; [5]): −22.0% | % LPS change from baseline, Median (LPS; [5]): −30.4% | plasma HGF change relative to placebo over 6 months (HGF; CRP>1.13 mg/L): decreased | HGF: % difference between NP001-treated and placebo at 6 months (% median change from baseline) (HGF; [6]): −31.4% | % HGF change from baseline, Mean (HGF; [5]): −7.6% | % HGF change from baseline, Median (HGF; [5]): −14.3% | IL-18: % difference between NP001-treated and placebo at 6 months (% median change from baseline) (IL-18; [6]): −58.3% | plasma IL-18 change relative to placebo over 6 months (words) (IL-18; [7]): decreased | % IL-18 change from baseline, Mean (IL-18; [5]): 25.8% | % IL-18 change from baseline, Median (IL-18; [5]): −2.1% | average VC lost per month (ALS patients [1]; 2 mg/kg, age≤65, CRP>1.13 mg/L, placebos 2.1%): 0.75 % VC per month | decline in VC over 6 months vs placebo (words) (ALS patients [1]): improved | decline in VC over 6 months vs placebo (words) (ALS patients [1]; listed as sodium chlorite): significantly slowed | % VC change from baseline, Month 6, Mean (ALS patients [1]; [8]): Mean: −9.1% | % VC change from baseline, Month 6, Median (ALS patients [1]; [8]): Median: −5.4% | % VC change from baseline, Month 5, Mean (ALS patients [1]; [9]): Mean: −9.4% | % VC change from baseline, Month 5, Median (ALS patients [1]; [9]): Median: −6.4% | % VC change from baseline, Month 4, Mean (ALS patients [1]; [10]): Mean: −8.1% | % VC change from baseline, Month 4, Median (ALS patients [1]; [10]): Median: −5.4% | % VC change from baseline, Month 3, Mean (ALS patients [1]; [11]): Mean: −6.5% | % VC change from baseline, Month 3, Median (ALS patients [1]; [11]): Median: −3.8% | % VC change from baseline, Month 2, Mean (ALS patients [1]; [12]): Mean: −4.6% | % VC change from baseline, Month 2, Median (ALS patients [1]; [12]): Median: −2.6% | % VC change from baseline, Month 1, Mean (ALS patients [1]; [13]): Mean: −2.5% | % VC change from baseline, Month 1, Median (ALS patients [1]; [13]): Median: −0.9% | mean % VC change from baseline by the end of study, low CRP group (ALS patients [1]; age≤65, CRP<1.13 mg/L, Placebo −13.5%, p=0.83): −16.4% | slower rate of VC loss compared to placebo (ALS patients [1]; age≤65, CRP>1.13 mg/L, end of six-month study, p=0.05): > 64% and 64% | plasma TNF-a values over the six-month study (TNF-a): within the normal range and did not change | plasma IL-8 values over the six-month study (IL-8): within the normal range and did not change | plasma IL-6 values over the six-month study (IL-6): within the normal range and did not change | monocyte activation marker CD16 (CD16): dose dependent down regulation | ratio of LPS to EGF, trend over time (LPS:EGF): decreased over time | plasma NfL in treated non-progressors compared to progressors (NfL): trend towards a loss of plasma NfL | disease progression vs placebo, post hoc evaluation of phase 2 studies (ALS patients [2]): slowed disease progression | ALSFRS-R score lost over six months (ALS patients [3]; 2 mg/kg, CRP>1.13 mg/L, age 40-65, placebos lost 4.6 units (p=0.03)): 1.2 units | proportion of non-progressors (no decrease in ALSFRS-R score at 6 months) (ALS patients [3]; 2 mg/kg, age 40-65, CRP>1.13 mg/L, placebo 2 out of 17): 6 out of 15 | decline in ALSFRS-R over 6 months vs placebo (words) (ALS patients [3]; CRP>1.13 mg/L): highly significant difference | non-progression rate (no decrease in ALSFRS-R score at 6 months) (ALS patients [3]; CRP>1.13 mg/L, age 40-65, placebos less than 10% (p=0.08)): 35% | decline in ALSFRS-R over 6 months vs placebo (words) (ALS patients [3]; [7]): significantly slowed | relationship between drug dose and change in ALSFRS-R score over six months (ALS patients [3]; plasma CRP above the median value (1.13 mg/L)): dose responsive relationship | clinical activity in all ALS patients of the phase 2A study (ALS patients [3]; symptom onset within the past three years, no CRP or age cutoff): did not show significant clinical activity
